Laboratory results: patent US12485169B2, “Compounds” (GREY WOLF THERAPEUTICS LIMITED, priority 2018, dated 2025)

Target: T1, Purified ERAP1 (37-941)-10His (ERAP1) (Homo sapiens, UniProt Q9NZ08)
T1 construct: Purified ERAP1 (37-941)-10His (ERAP1)
Experiment: ERAP1 mediated hydrolysis of an amide substrate (10-mer inhibition assay), biochemical system
Settings: 10-mer substrate, 23° C., 1 h, excitation 279 nm / emission 355 nm; read-out: IC50 vs Decapeptide WRVYEKC(Dnp)ALK-acid (where Dnp is Dinitrophenyl maleimide) (10-mer)
Procedure: However, as ERAP1 hydrolyses the N-terminal amide bond and tryptophan is released this internal quenching is lost and the reaction is monitored by the increase in tryptophan fluorescence over the course of the assay. For the purposes of this application this assay is referred to as the “10mer inhibition assay” and compound potencies are calculated and expressed as IC50 as would be familiar to a person skilled in the art.
Biological Assay 1: ERAP1 Mediated Hydrolysis of an Amide Substrate Measured in a Biochemical System
Decapeptide WRVYEKC(Dnp)ALK-acid (where Dnp is Dinitrophenyl maleimide) (10-mer) L-Leucine 7-amido-4-methylcoumarin (L-AMC)
12.5 μL ERAP1 enzyme in 1×AB was combined with 250 nL test compound in DMSO. […] For detection, plates were read at excitation 365 nm and emission 442 nm (L-AMC) or excitation 279 nm and emission 355 nm (10-mer).

T1 sequence (Q9NZ08 37-941): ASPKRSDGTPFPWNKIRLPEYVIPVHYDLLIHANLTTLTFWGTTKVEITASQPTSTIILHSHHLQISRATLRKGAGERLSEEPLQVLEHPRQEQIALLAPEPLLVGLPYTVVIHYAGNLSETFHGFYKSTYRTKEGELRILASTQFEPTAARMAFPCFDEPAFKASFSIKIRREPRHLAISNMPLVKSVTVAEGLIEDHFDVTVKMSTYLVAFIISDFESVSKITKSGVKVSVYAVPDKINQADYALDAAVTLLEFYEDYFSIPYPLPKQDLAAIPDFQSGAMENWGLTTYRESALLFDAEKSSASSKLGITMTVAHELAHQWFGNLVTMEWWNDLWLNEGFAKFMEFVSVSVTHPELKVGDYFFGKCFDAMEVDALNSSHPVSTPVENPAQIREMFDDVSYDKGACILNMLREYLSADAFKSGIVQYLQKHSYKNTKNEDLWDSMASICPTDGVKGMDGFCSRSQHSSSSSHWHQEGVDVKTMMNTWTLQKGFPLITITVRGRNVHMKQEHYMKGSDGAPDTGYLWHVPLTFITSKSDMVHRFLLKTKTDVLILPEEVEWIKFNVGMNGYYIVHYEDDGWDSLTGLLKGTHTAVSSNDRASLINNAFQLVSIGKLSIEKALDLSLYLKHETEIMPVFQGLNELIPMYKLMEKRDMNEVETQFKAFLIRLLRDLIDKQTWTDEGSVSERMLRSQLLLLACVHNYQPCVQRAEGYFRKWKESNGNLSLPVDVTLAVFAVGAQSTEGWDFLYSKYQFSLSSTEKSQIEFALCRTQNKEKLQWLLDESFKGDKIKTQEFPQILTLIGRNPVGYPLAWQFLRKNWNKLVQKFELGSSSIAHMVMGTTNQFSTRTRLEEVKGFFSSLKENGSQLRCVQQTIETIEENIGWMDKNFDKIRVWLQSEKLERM

| SMILES | IC50 |
| --- | --- |
| CCc1ccc(C(=O)O)cc1S(=O)(=O)Nc1cc(-c2c(C)noc2C)ccc1N1CCCCC1 [Example 291, 3-(N-(5-(3,5-dimethylisoxazol-4-yl)-2-(piperidin-1-yl)phenyl)sulfamoyl)-4-ethylbenzoic acid] | < 500 nM |
| CCC1(O)CCN(c2ccc(C(F)(F)F)cc2NS(=O)(=O)c2cc(C(=O)O)ccc2OC)CC1 [Example 15, 3-(N-(2-(4-ethyl-4-hydroxypiperidin-1-yl)-5-(trifluoromethyl)phenyl)sulfamoyl)-4-methoxybenzoic acid] | < 500 nM |
| CC(C)(C)c1ccc(C(=O)O)cc1S(=O)(=O)Nc1cc(C#N)ccc1N1CCCCC1 [Example 337, 4-(tert-butyl)-3-(N-(5-cyano-2-(piperidin-1-yl)phenyl)sulfamoyl)benzoic acid] | < 5000 nM |
| C[C@@H]1C[C@H](C)CN(c2ccc(C#N)cc2NS(=O)(=O)c2cc(C(=O)O)ccc2C2CC2)C1 [Example 328, 3-(N-(5-cyano-2-(cis-3,5-dimethylpiperidin-1-yl)phenyl)sulfamoyl)-4-cyclopropylbenzoic acid] | < 500 nM |
| COc1ccc(C(=O)O)cc1S(=O)(=O)Nc1cc(C(F)(F)F)ccc1N1CC[C@@H](O)[C@@H](F)C1 [Example 27, 3-(N-(2-((3S,4R)-3-fluoro-4-hydroxypiperidin-1-yl)-5-(trifluoromethyl)phenyl)sulfamoyl)-4-methoxybenzoic acid] | < 5000 nM |
| N#Cc1ccc(N2CCCC(F)(F)C2)c(NS(=O)(=O)c2cc(C(=O)O)ccc2C2CC2)c1 [Example 316, 3-(N-(5-cyano-2-(3,3-difluoropiperidin-1-yl)phenyl)sulfamoyl)-4-cyclopropylbenzoic acid] | < 500 nM |
| CCc1ccc(C(=O)O)cc1S(=O)(=O)Nc1cc(C(F)(F)F)ccc1N1CCC(F)(F)CC1 [Example 203, 3-(N-(2-(4,4-difluoropiperidin-1-yl)-5-(trifluoromethyl)phenyl)sulfamoyl)-4-ethylbenzoic acid] | < 500 nM |
| COc1ccc(C(=O)O)cc1S(=O)(=O)Nc1cc(S(C)(=O)=O)ccc1N1CCC[C@@H](O)C1 [Example 245, I-3-(N-(2-(3-hydroxypiperidin-1-yl)-5-(methylsulfonyl)phenyl)sulfamoyl)-4-methoxybenzoic acid] | < 500 nM |
| CCc1ccc(C(=O)O)cc1S(=O)(=O)Nc1cc(-c2ccno2)ccc1N1CCCCC1 [Example 300, 4-ethyl-3-(N-(5-(isoxazol-5-yl)-2-(piperidin-1-yl)phenyl)sulfamoyl)benzoic acid] | < 500 nM |
| CCc1ccc(C(=O)O)cc1S(=O)(=O)Nc1cc(S(C)(=O)=O)ccc1N1CCC(F)CC1 [Example 317, 4-ethyl-3-(N-(2-(4-fluoropiperidin-1-yl)-5-(methylsulfonyl)phenyl)sulfamoyl)benzoic acid] | < 500 nM |
| COc1ccc(C(=O)O)cc1S(=O)(=O)Nc1cc(C(F)F)ccc1N1CCCCC1 [Example 212, 3-(N-(5-(difluoromethyl)-2-(piperidin-1-yl)phenyl)sulfamoyl)-4-methoxybenzoic acid] | < 500 nM |
| CCc1ccc(C(=O)O)cc1S(=O)(=O)Nc1cc(-c2nncs2)ccc1N1CCCCC1 [Example 278, 4-ethyl-3-(N-(2-(piperidin-1-yl)-5-(1,3,4-thiadiazol-2-yl)phenyl)sulfamoyl)benzoic acid] | < 500 nM |
| O=C(O)c1ccc(-n2cccn2)c(S(=O)(=O)Nc2cc(C(F)(F)F)ccc2N2CCCCC2)c1 [Example 271, 3-(N-(2-(piperidin-1-yl)-5-(trifluoromethyl)phenyl)sulfamoyl)-4-(pyrazol-1-yl)benzoic acid] | < 5000 nM |
| Cc1ccc(C(=O)O)cc1S(=O)(=O)Nc1cc(C(F)(F)F)ccc1N1CCCCC1 [Example 67, 4-methyl-3-(N-(2-(piperidin-1-yl)-5-(trifluoromethyl)phenyl)sulfamoyl)benzoic acid] | < 500 nM |
| COc1ccc(C(=O)O)cc1S(=O)(=O)Nc1cc(C(F)(F)F)ccc1N1CC2CCC(C1)C2O (stereo not drawn) [Example 13, 3-(N-(2-(8-hydroxy-3-azabicyclo[3.2.1]octan-3-yl)-5-(trifluoromethyl)phenyl)sulfamoyl)-4-methoxybenzoic acid] | < 500 nM |
| N#Cc1ccc(N2CCC(F)CC2)c(NS(=O)(=O)c2cc(C(=O)O)ccc2C2CC2)c1 [Example 322, 3-(N-(5-cyano-2-(4-fluoropiperidin-1-yl)phenyl)sulfamoyl)-4-cyclopropylbenzoic acid] | < 500 nM |
| CCc1ccc(C(=O)O)cc1S(=O)(=O)Nc1cc(-c2nn[nH]n2)ccc1N1CCCCC1 [Example 261, 4-ethyl-3-(N-(2-(piperidin-1-yl)-5-(tetrazol-5-yl)phenyl)sulfamoyl)benzoic acid] | < 500 nM |
| CCc1ccc(C(=O)O)cc1S(=O)(=O)Nc1cc(C#N)ccc1N1CCCCC1 [Example 215, 3-(N-(5-cyano-2-(piperidin-1-yl)phenyl)sulfamoyl)-4-ethylbenzoic acid] | < 500 nM |
| CCc1ccc(C(=O)O)cc1S(=O)(=O)Nc1cc(Cl)ccc1N1CCCCC1 [Example 216, 3-(N-(5-chloro-2-(piperidin-1-yl)phenyl)sulfamoyl)-4-ethylbenzoic acid] | < 500 nM |
| COc1ccc(C(=O)O)cc1S(=O)(=O)Nc1cc(C(F)(F)F)ccc1N1C[C@H]2CN(C)C[C@H]2C1 [Example 8, 4-methoxy-3-(N-(2-(cis-5-methylhexahydropyrrolo[3,4-c]pyrrol-2 (1H)-yl)-5-(trifluoromethyl)phenyl)sulfamoyl)benzoic acid] | > 5000 nM |
| CCc1ccc(C(=O)O)cc1S(=O)(=O)Nc1cc(S(C)(=O)=O)ccc1N1CCCC(F)(F)C1 [Example 313, 3-(N-(2-(3,3-difluoropiperidin-1-yl)-5-(methylsulfonyl)phenyl)sulfamoyl)-4-ethylbenzoic acid] | < 500 nM |
| COc1ccc(C(=O)O)cc1S(=O)(=O)Nc1cc(C#N)ccc1N1CCC[C@@H](O)C1 [Example 258, I-3-(N-(5-cyano-2-(3-hydroxypiperidin-1-yl)phenyl)sulfamoyl)-4-methoxybenzoic acid] | < 500 nM |
| COc1ccc(C(=O)O)cc1S(=O)(=O)Nc1cc(-n2cnnn2)ccc1N1CCC[C@H](O)C1 [Example 253, (S)-3-(N-(2-(3-hydroxypiperidin-1-yl)-5-(tetrazol-1-yl)phenyl)sulfamoyl)-4-methoxybenzoic acid] | < 500 nM |
| CCc1ccc(C(=O)O)cc1S(=O)(=O)Nc1ccc(C(F)(F)F)cc1N1CCCCC1 [Example 230, 4-ethyl-3-(N-(2-(piperidin-1-yl)-4-(trifluoromethyl)phenyl)sulfamoyl)benzoic acid] | < 500 nM |
| COc1ccc(C(=O)O)cc1S(=O)(=O)Nc1cc(C(F)(F)F)ccc1N1CCCC1c1cc(C)no1 (stereo not drawn) [Example 46, 4-methoxy-3-(N-(2-(2-(3-methylisoxazol-5-yl)pyrrolidin-1-yl)-5-(trifluoromethyl)phenyl)sulfamoyl)benzoic acid] | < 5000 nM |
| O=C(O)c1ccc(C2CC2)c(S(=O)(=O)Nc2cc(-n3cnnn3)c(F)cc2N2CCCCC2)c1 [Example 333, 4-cyclopropyl-3-(N-(4-fluoro-2-(piperidin-1-yl)-5-(tetrazol-1-yl)phenyl)sulfamoyl)benzoic acid] | < 500 nM |
| COc1ccc(C(=O)O)cc1S(=O)(=O)Nc1ccc(Cl)cc1N1CCCCC1 [Example 65, 3-(N-(4-chloro-2-(piperidin-1-yl)phenyl)sulfamoyl)-4-methoxybenzoic acid] | < 500 nM |
